Columns and labels:
[1] = molecular target: T1, CK1α (Homo sapiens, UniProt P48729+Q96SW2); assay: HiBiT degradation assay, CK1α, Procedure A; assay type: cell-based; conditions: six hours
T1 construct: CSNK1A1-HiBit KI HEK293(LgBit) Cells; host or cells: HEK293(LgBit) knock-in cells
Method in brief: (§1)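 DC50 and Ymin (% remaining) were derived by four-parameter fitting of luminescence data. The data come from a six-hour, 37° C compound exposure of cells in DMEM/10% FBS over a ten-point range, 10 μM to 0.005 μM, followed by Nano-Glo HiBiT lytic detection.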

[2] = molecular target: GSPT1 (Homo sapiens, UniProt P15170+Q96SW2); assay: HiBiT degradation assay, GSPT1, Procedure A; assay type: cell-based; design: HiBit-GSPT1 KI HEK293(LgBit) Cells; host or cells: HEK293(LgBit) knock-in cells; conditions: six hours
Method in brief: as §1

T1 sequence (P48729 whole entry): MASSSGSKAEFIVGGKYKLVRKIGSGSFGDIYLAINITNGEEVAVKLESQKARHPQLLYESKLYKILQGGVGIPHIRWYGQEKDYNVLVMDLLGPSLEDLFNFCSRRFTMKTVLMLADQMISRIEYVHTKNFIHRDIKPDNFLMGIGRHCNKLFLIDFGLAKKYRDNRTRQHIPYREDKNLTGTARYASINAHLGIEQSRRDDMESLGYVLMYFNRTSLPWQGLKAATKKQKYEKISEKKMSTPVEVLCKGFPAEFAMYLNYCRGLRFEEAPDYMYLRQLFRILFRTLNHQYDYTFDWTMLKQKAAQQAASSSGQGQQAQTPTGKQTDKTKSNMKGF
T1 sequence (Q96SW2 whole entry): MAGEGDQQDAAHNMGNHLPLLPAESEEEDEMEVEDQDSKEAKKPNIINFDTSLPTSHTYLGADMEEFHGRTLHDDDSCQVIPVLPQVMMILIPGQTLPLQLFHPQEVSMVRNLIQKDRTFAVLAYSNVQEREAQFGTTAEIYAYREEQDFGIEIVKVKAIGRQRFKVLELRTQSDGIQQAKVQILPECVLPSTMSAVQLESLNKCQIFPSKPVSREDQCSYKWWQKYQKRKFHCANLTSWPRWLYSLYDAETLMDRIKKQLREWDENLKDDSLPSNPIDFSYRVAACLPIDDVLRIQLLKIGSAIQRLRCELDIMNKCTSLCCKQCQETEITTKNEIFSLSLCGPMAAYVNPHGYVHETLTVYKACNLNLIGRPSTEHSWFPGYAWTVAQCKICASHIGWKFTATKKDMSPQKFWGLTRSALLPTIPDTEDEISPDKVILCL
T1 sequence (Q16531 whole entry partner): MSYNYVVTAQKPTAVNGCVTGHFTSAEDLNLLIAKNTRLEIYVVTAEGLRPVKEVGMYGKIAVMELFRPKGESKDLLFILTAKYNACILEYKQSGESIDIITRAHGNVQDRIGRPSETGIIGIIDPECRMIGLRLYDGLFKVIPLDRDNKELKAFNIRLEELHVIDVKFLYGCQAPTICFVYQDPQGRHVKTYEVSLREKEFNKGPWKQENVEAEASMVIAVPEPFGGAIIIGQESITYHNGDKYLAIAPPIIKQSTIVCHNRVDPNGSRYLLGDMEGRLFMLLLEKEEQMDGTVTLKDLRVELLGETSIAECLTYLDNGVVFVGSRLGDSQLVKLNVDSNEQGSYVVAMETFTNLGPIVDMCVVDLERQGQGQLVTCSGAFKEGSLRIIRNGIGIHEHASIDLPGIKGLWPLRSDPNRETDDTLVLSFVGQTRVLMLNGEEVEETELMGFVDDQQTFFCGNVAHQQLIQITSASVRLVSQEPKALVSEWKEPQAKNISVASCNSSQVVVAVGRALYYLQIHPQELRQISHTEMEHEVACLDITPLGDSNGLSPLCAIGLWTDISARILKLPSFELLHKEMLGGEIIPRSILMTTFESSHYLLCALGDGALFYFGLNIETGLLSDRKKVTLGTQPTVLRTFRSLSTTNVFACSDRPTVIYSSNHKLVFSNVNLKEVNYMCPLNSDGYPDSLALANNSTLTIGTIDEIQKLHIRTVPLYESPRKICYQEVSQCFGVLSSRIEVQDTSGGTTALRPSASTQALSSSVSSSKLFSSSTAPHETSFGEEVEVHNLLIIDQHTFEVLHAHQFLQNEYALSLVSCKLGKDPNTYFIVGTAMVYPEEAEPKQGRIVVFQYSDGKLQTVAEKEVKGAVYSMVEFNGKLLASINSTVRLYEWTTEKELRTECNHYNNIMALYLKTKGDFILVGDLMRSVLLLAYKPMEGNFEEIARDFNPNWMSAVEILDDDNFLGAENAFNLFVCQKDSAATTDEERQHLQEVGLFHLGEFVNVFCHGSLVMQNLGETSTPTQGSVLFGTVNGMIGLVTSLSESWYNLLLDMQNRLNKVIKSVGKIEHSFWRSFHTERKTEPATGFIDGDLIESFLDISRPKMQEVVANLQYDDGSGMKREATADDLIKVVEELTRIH
GSPT1, sequence (P15170 whole entry): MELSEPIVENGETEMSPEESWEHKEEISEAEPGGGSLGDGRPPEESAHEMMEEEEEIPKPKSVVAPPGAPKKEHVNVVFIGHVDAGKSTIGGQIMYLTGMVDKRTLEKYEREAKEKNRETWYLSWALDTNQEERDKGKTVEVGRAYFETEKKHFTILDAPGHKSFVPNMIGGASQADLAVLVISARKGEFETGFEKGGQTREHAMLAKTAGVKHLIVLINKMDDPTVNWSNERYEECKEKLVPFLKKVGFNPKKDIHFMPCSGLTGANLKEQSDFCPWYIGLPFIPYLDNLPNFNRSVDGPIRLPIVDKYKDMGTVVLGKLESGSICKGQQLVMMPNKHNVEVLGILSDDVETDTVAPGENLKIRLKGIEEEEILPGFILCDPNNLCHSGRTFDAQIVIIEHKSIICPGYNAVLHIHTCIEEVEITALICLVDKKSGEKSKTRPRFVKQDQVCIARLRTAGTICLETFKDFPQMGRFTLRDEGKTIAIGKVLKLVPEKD
GSPT1, sequence (Q96SW2 whole entry): as the sequence (Q96SW2 whole entry) above
GSPT1, sequence (Q16531 whole entry partner): as the sequence (Q16531 whole entry partner) above

| SMILES | CK1α Ymin [1] | DC50 [1] [µM] | DC50 [2] [µM] | GSPT1 Ymin [2] |
| --- | --- | --- | --- | --- |
| COc1cc(-c2nc(-c3ccc4c(c3)CN(C3CCC(=O)NC3=O)C4=O)cn2C)ccc1Cl (stereo not shown) [Example 579] | C (C = 0-10% remaining) | < 0.025 | < 0.025 | F (F = >75-100% remaining) |
| Cn1cc(-c2ccc3c(c2)CN(C2CCC(=O)NC2=O)C3=O)nc1-c1cccc(OC2CC2)c1 (stereo not shown) [Example 580] | C (C = 0-10% remaining) | < 0.025 | ≥ 0.025 | F (F = >75-100% remaining) |
| Cn1cc(-c2ccc3c(c2)CN(C2CCC(=O)NC2=O)C3=O)nc1-c1ccc(OC2CC2)cc1 (stereo not shown) [Example 581] | C (C = 0-10% remaining) | < 0.025 | < 0.025 | F (F = >75-100% remaining) |
| Cn1cc(-c2ccc3c(c2)CN(C2CCC(=O)NC2=O)C3=O)nc1-c1ccc(C2CCCCC2)cc1 (stereo not shown) [Example 582] | C (C = 0-10% remaining) | < 0.025 | < 0.025 | F (F = >75-100% remaining) |
| COc1cc(-c2nc(-c3ccc4c(c3)CN(C3CCC(=O)NC3=O)C4=O)cn2C)ccc1F (stereo not shown) [Example 583] | C (C = 0-10% remaining) | < 0.025 | < 0.025 | F (F = >75-100% remaining) |
| COc1ccc(-c2nc(-c3ccc4c(c3)CN(C3CCC(=O)NC3=O)C4=O)cn2C)cc1Cl (stereo not shown) [Example 584] | C (C = 0-10% remaining) | < 0.025 | ≥ 0.025 | F (F = >75-100% remaining) |
| Cn1cc(-c2ccc3c(c2)CN(C2CCC(=O)NC2=O)C3=O)nc1-c1ccn2ccnc2c1 (stereo not shown) [Example 585] | D (D = >10- 25% remaining) | ≥ 0.025 | < 0.025 | F (F = >75-100% remaining) |
| Cn1cc(-c2ccc3c(c2)CN(C2CCC(=O)NC2=O)C3=O)nc1-c1cc(F)cc(Cl)c1 (stereo not shown) [Example 586] | C (C = 0-10% remaining) | < 0.025 | ≥ 0.025 | F (F = >75-100% remaining) |
| Cn1cc(-c2ccc3c(c2)CN(C2CCC(=O)NC2=O)C3=O)nc1-c1ccc(C(F)F)cc1 (stereo not shown) [Example 587] | C (C = 0-10% remaining) | < 0.025 | ≥ 0.025 | F (F = >75-100% remaining) |
| Cn1ncc(-c2ccc3c(c2)CN(C2CCC(=O)NC2=O)C3=O)c1C1=CCCCC1 (stereo not shown) [Example 589] | E (E = >25-75% remaining) | < 0.025 | ≥ 0.025 | F (F = >75-100% remaining) |
| CN1CCC(c2c(-c3ccc4c(c3)CN(C3CCC(=O)NC3=O)C4=O)cnn2C)CC1 (stereo not shown) [Example 590] | E (E = >25-75% remaining) | ≥ 0.025 | ≥ 0.025 | F (F = >75-100% remaining) |
| CN1CC=C(c2c(-c3ccc4c(c3)CN(C3CCC(=O)NC3=O)C4=O)cnn2C)CC1 (stereo not shown) [Example 591] | E (E = >25-75% remaining) | ≥ 0.025 | < 0.025 | F (F = >75-100% remaining) |
| Cn1ncc(-c2ccc3c(c2)CN(C2CCC(=O)NC2=O)C3=O)c1C1CCOC1 (stereo not shown) [Example 592] | E (E = >25-75% remaining) | ≥ 0.025 | ≥ 0.025 | F (F = >75-100% remaining) |
| Cn1ncc(-c2ccc3c(c2)CN(C2CCC(=O)NC2=O)C3=O)c1C1=CCOC1 (stereo not shown) [Example 593] | E (E = >25-75% remaining) | ≥ 0.025 | ≥ 0.025 | F (F = >75-100% remaining) |
| Cn1cnc(-c2ccc3c(c2)CN(C2CCC(=O)NC2=O)C3=O)c1C1=CCCCC1 (stereo not shown) [Example 595] | D (D = >10- 25% remaining) | < 0.025 | ≥ 0.025 | F (F = >75-100% remaining) |
| CN1CC=C(c2c(-c3ccc4c(c3)CN(C3CCC(=O)NC3=O)C4=O)ncn2C)CC1 (stereo not shown) [Example 596] | C (C = 0-10% remaining) | ≥ 0.025 | ≥ 0.025 | F (F = >75-100% remaining) |
| Cn1cnc(-c2ccc3c(c2)CN(C2CCC(=O)NC2=O)C3=O)c1C1CCOC1 (stereo not shown) [Example 597] | E (E = >25-75% remaining) | ≥ 0.025 | ≥ 0.025 | F (F = >75-100% remaining) |
| Cn1cnc(-c2ccc3c(c2)CN(C2CCC(=O)NC2=O)C3=O)c1C1=CCOC1 (stereo not shown) [Example 598] | D (D = >10- 25% remaining) | < 0.025 | ≥ 0.025 | E (E = >25-75% remaining) |
| Cn1nc(-c2ccc3c(c2)CN(C2CCC(=O)NC2=O)C3=O)nc1C1CCOCC1 (stereo not shown) [Example 599, 3-(5-(1-methyl-5-(tetrahydro-2H-pyran-4-yl)-1H-1,2,4-triazol-3-yl)-1-oxoisoindolin-2-yl)piperidine-2,6-dione] | E (E = >25-75% remaining) | < 0.025 | ≥ 0.025 | F (F = >75-100% remaining) |
| CC1CCN(c2nc(-c3ccc4c(c3)CN(C3CCC(=O)NC3=O)C4=O)nn2C)CC1 (stereo not shown) [Example 600, 3-(5-(1-methyl-5-(4-methylpiperidin-1-yl)-1H-1,2,4-triazol-3-yl)-1-oxoisoindolin-2-yl)piperidine-2,6-dione] | D (D = >10- 25% remaining) | < 0.025 | ≥ 0.025 | F (F = >75-100% remaining) |
| Cn1nc(-c2ccc3c(c2)CN(C2CCC(=O)NC2=O)C3=O)nc1N1CCc2ccccc2C1 (stereo not shown) [Example 603, 3-(5-(5-(3,4-dihydroisoquinolin-2 (1H)-yl)-1-methyl-1H-1,2,4-triazol-3-yl)-1-oxoisoindolin-2-yl)piperidine-2,6-dione] | D (D = >10- 25% remaining) | < 0.025 | ≥ 0.025 | F (F = >75-100% remaining) |
| Cn1c(C2CCOCC2)nc(-c2ccc3c(c2)CN(C2CCC(=O)NC2=O)C3=O)c1C1CC1 (stereo not shown) [Example 604, 3-(5-(5-cyclopropyl-1-methyl-2-(tetrahydro-2H-pyran-4-yl)-1H-imidazol-4-yl)-1-oxoisoindolin-2-yl)piperidine-2,6-dione] | C (C = 0-10% remaining) | < 0.025 | ≥ 0.025 | F (F = >75-100% remaining) |
| Cn1nc(-c2ccc3c(c2)CN(C2CCC(=O)NC2=O)C3=O)nc1C1CCC(C)(C)CC1 (stereo not shown) [Example 605, 3-(5-(5-(4,4-dimethylcyclohexyl)-1-methyl-1H-1,2,4-triazol-3-yl)-1-oxoisoindolin-2-yl)piperidine-2,6-dione] | E (E = >25-75% remaining) | < 0.025 | ≥ 0.025 | F (F = >75-100% remaining) |
| O=C1CCC(N2Cc3cc(-n4cncc4-c4ccccc4)ccc3C2=O)C(=O)N1 (stereo not shown) [Example 607, 3-(1-oxo-5-(5-phenyl-1H-imidazol-1-yl)isoindolin-2-yl)piperidine-2,6-dione] | E (E = >25-75% remaining) | ≥ 0.025 | ≥ 0.025 | F (F = >75-100% remaining) |
| Cn1nc(-c2ccc3c(c2)CN(C2CCC(=O)NC2=O)C3=O)nc1N1CCC2(CC1)CC2 (stereo not shown) [Example 608, 3-(5-(1-methyl-5-(6-azaspiro[2.5]octan-6-yl)-1H-1,2,4-triazol-3-yl)-1-oxoisoindolin-2-yl)piperidine-2,6-dione] | D (D = >10- 25% remaining) | < 0.025 | ≥ 0.025 | F (F = >75-100% remaining) |

Reference: US20240158370A1, “CK1 alpha AND DUAL CK1 alpha / GSPT1 DEGRADING COMPOUNDS” (Innovo Therapeutics, Inc., priority 2022, published 2024)
